Test system: P12-Ichikawa
Experiment: cell viability relative to DMSO control; higher = less cytotoxic
Settings: 48 h
In short: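 Viability is expressed as a percentage of DMSO wells within each plate, and cell-free wells serve as background. Seeding densities in the 1536-well plates (5 μl) were 500 cells/well for NOMO1 or SEM leukemia cells and 1000 cells/well for P12-Ichikawa. Each line was adapted for at least four passages in each medium. Library compounds in DMSO were pin-dosed at 47 μM to 0.79 nM (11 points, threefold), and CellTiter-Glo One luminescence was read after 48 h at 37°C.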

[1] = HPLM + 10% dialyzed FBS, 0.000781 µM
[2] = HPLM + 10% dialyzed FBS, 0.00234 µM
[3] = HPLM + 10% dialyzed FBS, 0.00702 µM
[4] = HPLM + 10% dialyzed FBS, 0.0211 µM
[5] = HPLM + 10% dialyzed FBS, 0.0632 µM
[6] = HPLM + 10% dialyzed FBS, 0.19 µM
[7] = HPLM + 10% dialyzed FBS, 0.569 µM
[8] = HPLM + 10% dialyzed FBS, 1.71 µM
[9] = HPLM + 10% dialyzed FBS, 5.12 µM
[10] = HPLM + 10% dialyzed FBS, 15.4 µM
[11] = HPLM + 10% dialyzed FBS, 46.1 µM
[12] = RPMI 5 mM glucose + 10% FBS, 0.000781 µM
[13] = RPMI 5 mM glucose + 10% FBS, 0.00234 µM
[14] = RPMI 5 mM glucose + 10% FBS, 0.00702 µM
[15] = RPMI 5 mM glucose + 10% FBS, 0.0211 µM
[16] = RPMI 5 mM glucose + 10% FBS, 0.0632 µM
[17] = RPMI 5 mM glucose + 10% FBS, 0.19 µM
[18] = RPMI 5 mM glucose + 10% FBS, 0.569 µM
[19] = RPMI 5 mM glucose + 10% FBS, 1.71 µM
[20] = RPMI 5 mM glucose + 10% FBS, 5.12 µM
[21] = RPMI 5 mM glucose + 10% FBS, 15.4 µM
[22] = RPMI 5 mM glucose + 10% FBS, 46.1 µM
[23] = RPMI 5 mM glucose + 10% dialyzed FBS, 0.000781 µM
[24] = RPMI 5 mM glucose + 10% dialyzed FBS, 0.00234 µM
[25] = RPMI 5 mM glucose + 10% dialyzed FBS, 0.00702 µM
[26] = RPMI 5 mM glucose + 10% dialyzed FBS, 0.0211 µM
[27] = RPMI 5 mM glucose + 10% dialyzed FBS, 0.0632 µM
[28] = RPMI 5 mM glucose + 10% dialyzed FBS, 0.19 µM
[29] = RPMI 5 mM glucose + 10% dialyzed FBS, 0.569 µM
[30] = RPMI 5 mM glucose + 10% dialyzed FBS, 1.71 µM
[31] = RPMI 5 mM glucose + 10% dialyzed FBS, 5.12 µM
[32] = RPMI 5 mM glucose + 10% dialyzed FBS, 15.4 µM
[33] = RPMI 5 mM glucose + 10% dialyzed FBS, 46.1 µM

Compound | cell viability [1] [%] | cell viability [2] [%] | cell viability [3] [%] | cell viability [4] [%] | cell viability [5] [%] | cell viability [6] [%] | cell viability [7] [%] | cell viability [8] [%] | cell viability [9] [%] | cell viability [10] [%] | cell viability [11] [%] | cell viability [12] [%] | cell viability [13] [%] | cell viability [14] [%] | cell viability [15] [%] | cell viability [16] [%] | cell viability [17] [%] | cell viability [18] [%] | cell viability [19] [%] | cell viability [20] [%] | cell viability [21] [%] | cell viability [22] [%] | cell viability [23] [%] | cell viability [24] [%] | cell viability [25] [%] | cell viability [26] [%] | cell viability [27] [%] | cell viability [28] [%] | cell viability [29] [%] | cell viability [30] [%] | cell viability [31] [%] | cell viability [32] [%] | cell viability [33] [%]
CN1[C@@H]2CC(O)C[C@H]1[C@@H]1O[C@@H]12 (stereo partly specified) | 122 | 121 | 124 | 105 | 119 | 115 | 119 | 120 | 114 | 119 | 6.79 | 122 | 113 | 123 | 119 | 135 | 121 | 119 | 125 | 107 | 104 | 18.3 | 118 | 119 | 127 | 112 | 125 | 120 | 120 | 113 | 106 | 120 | 4.64
COc1ccc([C@@H]2CNC(=O)C2)cc1OC1CCCC1 | 103 | 107 | 104 | 110 | 109 | 111 | 113 | 109 | 117 | 114 | 109 | 101 | 104 | 110 | 99.8 | 97.1 | 113 | 117 | 105 | 117 | 118 | 108 | 99.1 | 106 | 113 | 107 | 118 | 110 | 114 | 103 | 113 | 111 | 118
C[C@@]12OC(=O)[C@@]1(NC(=O)[C@@H]2CCCl)[C@@H](O)[C@H]\3CCC\C=C3 | 96.4 | 100 | 104 | 107 | 109 | 74.8 | 6.01 | 5.06 | 3.28 | 2.14 | 0.616 | 97.4 | 109 | 108 | 106 | 107 | 69.8 | 7.03 | 4.69 | 3.15 | 2.13 | 0.774 | 94 | 110 | 105 | 104 | 108 | 54.4 | 6.75 | 4.56 | 3.02 | 2.27 | 0.713
CO[C@@H]1[C@H](N(C)C(=O)c2ccccc2)C[C@H]2O[C@]1(C)n1c3ccccc3c3c4c(c5c6ccccc6n2c5c31)C(=O)NC4 | 113 | 111 | 113 | 112 | 121 | 122 | 122 | 109 | 17.9 | 15 | 18.9 | 112 | 110 | 111 | 117 | 119 | 122 | 124 | 106 | 24.4 | 28.8 | 24.4 | 111 | 125 | 117 | 116 | 123 | 140 | 126 | 111 | 35.7 | 33.1 | 30.2
CCN(CC)CCOC1=CC=C(NC2=NC=C3\C=C(/C(=O)N(C)C3=N2)C4=C(Cl)C=CC=C4Cl)C=C1 | 107 | 114 | 109 | 84.8 | 111 | 96.5 | 99.6 | 109 | 21.8 | 5.01 | 4.01 | 122 | 120 | 118 | 85.2 | 109 | 101 | 113 | 106 | 13.3 | 4.01 | 6.43 | 118 | 124 | 122 | 94.6 | 109 | 96.9 | 111 | 113 | 12.1 | 4.8 | 6.66
C[C@@H]1CN(CC(=O)N2CC(C)(C)c3ncc(Cc4ccc(F)cc4)cc32)[C@@H](CN2CCOC[C@H]2C)CN1 | 102 | 113 | 81.8 | 113 | 118 | 121 | 111 | 112 | 115 | 110 | 91.8 | 102 | 106 | 69.7 | 118 | 118 | 132 | 114 | 128 | 125 | 116 | 98.2 | 110 | 119 | 88.8 | 125 | 126 | 135 | 128 | 122 | 121 | 118 | 90.8
CC1(C)CC(=O)c2c(C(F)(F)F)nn(-c3ccc(C(N)=O)c(NC4CCC(OC(=O)CN)CC4)c3)c2C1 (stereo unspecified) | 107 | 86.9 | 96.8 | 96.5 | 102 | 88.6 | 62.2 | 42.1 | 36.4 | 36.3 | 37.9 | 83.8 | 93.7 | 91.7 | 95.4 | 99.1 | 66.3 | 35.2 | 33.2 | 29.2 | 28.8 | 27.3 | 92.9 | 92.9 | 93 | 91.9 | 89.6 | 82.4 | 41 | 32.3 | 33.3 | 28.8 | 28.5

From the supplement of paper PMC11451515
